Laboratory results taken from US10493118B2, “Triterpenoid obtainable from hedera helix for treatment of neurodegenerative diseases” (Macau University of Science and Technology, priority 2016, dated 2019).

Columns and labels:
LC3-II = assay: Western blot of LC3 conversion (LC3-II) in PC-12 cells; assay type: cell-based; details: for protein level of LC3-II with AMPK inhibitor compound C (CC): 60 μM hederagenin or 18 μM α-hederin with 5 μM CC; for protein level of LC3-II with addition of 3-MA: 60 μM hederagenin or 18 μM α-hederin with 5 mM 3-MA; for rate of LC3-II formation with lysosomal protease inhibitors (autophagic flux): 60 μM hederagenin or 18 μM α-hederin with E64d and pepstatin A (10 μg/mL), compared with compounds alone; for protein level of LC3-II: PC-12 cells, various durations and concentrations
[1] = UHPLC/MS/MS measurement of hederagenin and α-hederin level in mice brain tissues; assay type: in vivo
Protocol: Whole mice brains were collected and weighted after sacrificed. Each brain tissue was put into 500 μl of NaCl solution and ultra-sonicated for 40 s to give the whole tissue homogenate. Each tube of homogenate was set to a final volume of 800 μl. […] The supernatant was collected and remaining precipitate was re-extracted with 200 μl of methanol. The collected supernatant was then combined and dried by using dry nitrogen blowing instrument. The residue was reconstituted with 200 μl of 30% acetonitrile, and then 10 μl of the aliquot was injected into the LC-MS/MS system (Su, F. L. et al., Chromatographia 2009, 69:207-213). […] The measurement of dopamine (DA), hederagenin and α-hederin level in mice brain tissues: Internal standard (IS, DHBA), DA, hederagenin and α-hederin level in the mouse brain, were quantified using UHPLC/MS/MS system which includes Agilent 1290 Infinity UHPLC, and Agilent 6460 Triple Quadrupole, equipped with an electrospray ionization interface used to generate positive ions for the determination of DA; negative ion mode for the measurement of hederagenin and α-hederin in mouse brains. The compounds in plasma samples were analyzed by using the Agilent Zorbax Eclipse Plus C-18 column with a particle size of 1.8 μm (flow rate: 0.35 mL/min). […] Data were analyzed by using Agilent MassHunter Workstation software B.01.03. […]

p-AMPK = assay: Western blot of AMPK phosphorylation; assay type: cell-based; details: hederagenin 0-80 μM, α-hederin 0-24 μM, 24 h
Excerpt: Protein extraction and Western blots: Cells were harvested by RIPA lysis buffer (Cell Signaling Technologies, Beverly, Mass., USA), and with the final protein concentrations measured by using Bradford reagent (Bio-Rad, Hercules, Calif., USA). After electrophoresis for protein band separation, proteins were transferred to the nitrocellulose membrane which was blocked with 5% non-fat dried milk immediately after protein transfer. Corresponding primary antibodies, followed by the addition of HRP-conjugated secondary antibodies, were incubated with the protein membrane with constant shaking. Visualization of protein band pattern was performed by using the ECL Western Blotting Detection Reagents (Invitrogen, Paisley, Scotland). Band intensities were quantified by using the software, ImageJ (ImageJ 1.46r; National Institutes of Health, Bethesda, Md., USA).

[2] = tested on: α-synuclein oligomerization; assay: Bimolecular fluorescence complementation (BiFC) assay of α-synuclein oligomerization in HeLa cells; assay type: cell-based; details: for oligomerization of α-syn (GFP fluorescence intensity): transfected HeLa cells, hederagenin 40 or 80 μM, α-hederin 12 or 24 μM, 24 h
Protocol: Bimolecular Fluorescence Complementation (BiFC) Assay: Both (1) non-fluorescent GFP-N terminal (GFP-N-α-syn), or (2) non-fluorescent GFP-C terminal (GFP-C-α-syn) plasmids were generous gifts from Pamela J. McLean (Department of Neuroscience, Mayo Clinic Florida, Jacksonville, Fla., USA). HeLa cells transfected with both GFP-N-α-syn and GFP-C-α-syn plasmids were incubated at 37° C. for 4 h. Cells were then subjected to different concentration of hederagenin or α-hederin treatments for a further 24 h in a humidified incubator at […] (Outeiro, T. F. et al., PLoS One 2008, 3:e1867). Green fluorescent signal which indicates the reconstitution of complete GFP proteins was detected by flow analysis (BD FACSAria III, San Jose, Calif., USA).

Compound | protein level of LC3-II with AMPK inhibitor compound C (CC) (LC3-II) | protein level of LC3-II with addition of 3-MA (LC3-II) | rate of LC3-II formation with lysosomal protease inhibitors (autophagic flux) (LC3-II) | protein level of LC3-II (LC3-II) | level detected in the brain tissue ([1]; mice with 80 mg/kg HH-EF′ treatment, oral) [nM] | phosphorylation of AMPK (p-AMPK) | oligomerization of α-syn (GFP fluorescence intensity) [2] | level detected in the brain tissue ([1]; C57BL/6, mouse, in vivo, po, 80 mg/kg) [nM] | inhibition of α-syn oligomerization relative to α-hederin ([2]; BiFC assay, HeLa cells)
C[C@@H]1O[C@@H](O[C@H]2[C@H](O[C@H]3CC[C@@]4(C)[C@@H](CC[C@]5(C)[C@@H]4CC=C4[C@@H]6CC(C)(C)CC[C@]6(C(=O)O)CC[C@]45C)[C@]3(C)CO)OC[C@H](O)[C@@H]2O)[C@H](O)[C@H](O)[C@H]1O [α-hederin] | significant reduction in protein level of LC3-II | decreased protein level of LC3-II | significantly increase the rate of LC3-II formation | increase in the protein level of LC3-II via a dose- and time-dependent manner | 2.98 | increased phosphorylation of AMPK | inhibit the oligomerization of α-syn | – | –
CC1(C)CC[C@]2(C(=O)O)CC[C@]3(C)C(=CC[C@@H]4[C@@]5(C)CC[C@H](O)[C@@](C)(CO)[C@@H]5CC[C@]43C)[C@@H]2C1 [hederagenin] | significant reduction in protein level of LC3-II | decreased protein level of LC3-II | significantly increase the rate of LC3-II formation | increase in the protein level of LC3-II via a dose- and time-dependent manner | – | increased phosphorylation of AMPK | inhibit the oligomerization of α-syn | 3.39 | more potent in the inhibition
